Patent US10829506B2, “Amino- or ammonium-containing sulfonic acid, phosphonic acid and carboxylic acid derivatives and their medical use” (GRI Bio, Inc., priority 2011, dated 2020)

Assays:
phospho-Akt Ser473 = test: Inhibition of Akt phosphorylation on Ser473 in IgE sensitized, antigen stimulated RBL-2H3 cells; format: cell-based, rat; settings: normalized to total Akt, IgE and antigen for 15 min
From the text: The mast cell degranulation assay using the RBL-2H3 cell line (see Example 27) was also used to determine the status of the PI3K/Akt axis. Activation of PI3K leads to production of PIP3 on the cytosolic side of the lipid bilayer. Akt is recruited to the PIP3 domain and subsequently activated by phosphorylation on residues Ser473 and Thr308. (Franke et al., Cell 81:727-736, (1995)). Once recruited to the membrane, it is phosphorylated and activated by other kinases (Hemmings, Science 275:628-630 (1997); Hemmings. Science 276:534 (1997); Downward, Science 279:673-674 (1998); Alessi et al., EMBO J. 15:6541-6551 (1996)). Western blotting of the phosphorylated Ser473 residue on Akt (phospho-Akt Ser473) is widely used to assess the level of activation of the PI3K/Akt axis.
All buffers and solutions used for the phosphor-Akt Ser473 assay were from Meso Scale Discovery. Tris Lysis Buffer consisted of 150 mM NaCl, 20 mM Tris, pH 7.5, 1 mM EDTA, 1 mM EGTA and 1% Triton-X-100. Complete Tris Lysis Buffer was prepared prior to use by addition of protease inhibitor, phosphatase inhibitors and PMSF. The 10x Tris Wash Buffer consisted of 500 mM Tris, pH 7.5, 1.5 M NaCl and 0.2% Tween-20. Blocker A was made up of bovine serum albumin in Tris Wash Buffer. Read Buffer T was used according to manufacturer's instructions. The Whole Cell Lysate Kits used were phospho-Akt Ser473 (K11100D. Lot K0011749) and total ERK½ (K11107D, Lot K0011698) as a loading control.
Protein assay: protein concentration was determined using the BCA (bicinchoninic acid) Protein Assay kit according to the manufacturer's instructions, Briefly, duplicate 10 μl samples of bovine serum albumin (BSA) standards, blank and lysates were incubated in a 96-well plate with 0.2 ml working reagent for 30 min at 37° C. Plates cooled to room temperature for 5 min and absorbance at 562 nm measured in a multi-mode plate reader. Protein concentrations were calculated using FlexStation 3 software (SoftMax Pro version 5.3). Protein concentration of lysates was determined from a standard curve (BSA) using a linear curve fit.
Phosphoprotein assay: protein phosphorylation was determined using the MULTI-SPOT® Assay System (Meso Scale Discovery), providing simultaneous detection of phosphorylated and total proteins. Briefly, capture antibodies against phosphorylated and total protein are patterned on distinct spots in the same well of 96-well plates. Sandwich immunoassay and electrochemiluminescence detection technology are combined to measure intensity of the emitted light from phosphorylated and total protein spots. For analysis of phosphor-Akt Ser473 was performed according to the manufacturer's instructions. The optimal amount of protein was determined at 5 μg lysate per well for ERK½ and 10 μg/well for phospho-Akt Ser473. Plates were blocked with 25 μl/well Blocker A for 1 h at room temperature with gentle agitation. During this time, the lysates were thawed and diluted to the desired protein concentration in complete Tris Lysis Buffer. Plates were washed four times in Tris Wash Buffer and 25 μl lysate per well added. Plates were incubated for 1-3 h at room temperature with agitation according to the manufacturer's recommendations. Plates were washed four times with Tris Wash Buffer, followed by addition of 25 μl/well of the respective detection antibody and incubation for 1 h at room temperature, with agitation. After a final four washes with Tris Wash Buffer 150 μl/well, Read Buffer T was added, and plates read on a SECTOR Imager 6000 plate reader.
The mean background signal from each plate was subtracted from averaged raw data. The amount of total protein phosphorylaled was expressed as % phosphoprotein according to the manufacturer's (Meso Scale Discovery) Instructions.
Levels of phospho-Akt Ser473 were determined in IgE sensitized and antigen stimulated cells after treatment without (positive control) or with 1, 5 and 25 μM test compound and normalized to levels of total Akt.

RBL-2H3 cells [1] = test: Maximum tolerated concentration (cytotoxicity by lactate dehydrogenase release); format: cell-based, rat
From the text: A commercially available cytotoxicity test was used (Promega Cytotox-One cat. #67891).
The safety index (SI) of a test compound Is the ratio between the maximum tolerated concentration and the 1C50 and is used as a measure of the relative safety of the test compound.

RBL-2H3 cells [2] = test: Inhibition of mast cell degranulation (β-hexosaminidase release); format: cell-based, rat; settings: RBL-2H3 cells sensitized with anti-DNP IgE, triggered with DNP-HSA, 1 h preincubation
From the text: Mast cells are key effector cells involved in allergic and inflammatory diseases, and the Rat Basophilic Leukemia clone 2H3 (RBL-2H3) cell line is a commonly used model of allergen dependent immune modulator release (degranulation) in mast cells. On their surface, they express the high affinity receptor for IgE (FcεRI). Upon binding of antigen-specific IgE to the receptor, cells become sensitized to the IgE specific antigen (allergen). When IgE-sensitized cells then encounter multivalent antigen, the antigen clusters IgE-FcεRI complexes and initiates a signal transduction cascade that leads to degranulation, that is, the release of inflammatory mediators, such as cytokines, eicosanoids, histamine and enzymes. The assay can be used as a screening method to identify immune-modulating compounds, in particular compounds useful in the medical management of allergic and inflammatory diseases and asthma, β-hexosaminidase was previously shown to be released with the same kinetics as histamine (Schwartz et al., J Immunology; 123:1445-1450 (1979)), thus offering a simple means to monitor degranulation. The RBL-2H3 cell line has been successfully used to identify compounds with anti-allergic activity (Choo et al. Planta Med., 69:518-522 (2003)).
Cell Culture: RBL-2H3 cells obtained from the German Collection of Microorganisms and Cell Cultures (ACC312) (Braunschweig, Germany) were maintained in 70% Minimum Essential Medium with Earle's Salts, 20% RPMI 1640 Medium, 10% FBS and 2 mM l-glutamine in 95% air/5% CO2 at 37° C. and routinely checked for mycoplasma contamination. Cells were passaged every 3-4 days; after washing cells once with 35 ml PBS cells were incubated 8 min with 5 ml 0.05% Trypsin-EDTA solution at 37° C. Cells were removed from the incubator, 15 ml culture medium was added and cells were resuspended by repeated pipetting.
Cell seeding: cells were harvested with Trypsin-EDTA as described and 50-100 μl cell suspension seeded Into Costar CellBind 24 well cluster plates (no. 3337). Plates were kept for 30 min at RT under the sterile hood before being transferred to the incubator. Cells were used within one or two days after seeding.
For sensitization, cells for immediate use were sensitized 6-12 h after plating; cells to be used the following day were sensitized 26-38 h after plating. Culture plates were removed from the incubator and checked for cell growth and contamination. The medium was discarded and cells were sensitized with anti-DNP IgE (0.4 μg/ml) in 0.4 ml culture medium overnight. Following overnight sensitization, cells were washed with 0.8 ml pre-warmed TyB and 0.38 ml test compound or vehicle control (supplemented or not with 1% FBS) were added to duplicate wells. Samples were adjusted to contain 1% vehicle for test compounds dissolved in organic solvents. Cells were incubated for 1 h at 37° C. At the end of the incubation period, cells were routinely stimulated with 20 μl DNP-HSA (2 μg/ml; final concentration 0.1 μg/ml) diluted in TyB and cells were incubated for 15 min at 37° C. Alternatively, cells were stimulated with 20 μl […] (final concentration 0.25 μM) or 20 nM […] (final concentration 0.25 μM), both in the absence or presence of 20 nM PMA (final concentration).
Plates were removed from the incubator and immediately centrifuged at 4° C. for 5 min at 250×g and transferred to an ice bath. Aliquots of supernatants, 25 μl, were transferred to 96-well plates. Remaining supernatant was aspirated from control wells and cells were lysed in […] lysis buffer for 5 min at RT on an orbital shaker at 450 rpm under non-sterile conditions. After lysis, 25 μl aliquots of lysates were transferred to 96-well plates.
MUG substrate solution, 100 μl, were added to supernatant and lysate samples and plates were incubated 30 min at 37° C. The reaction was terminated by addition of 150 μl stop solution. Fluorescence was measured at 365 nm excitation and 440 nm emission wavelengths. […]

BALB/cJW mice = test: Delayed-type hypersensitivity (DTH) reaction, mouse ear swelling; format: in vivo; settings: oral; 1a 100 mg/kg (loading dose, then maintenance doses), dexamethasone 1.0 mg/kg once daily; 24 h after ovalbumin challenge
Method: The anti-inflammatory and anti-allergic effects of compound 1a was assessed in a mouse model of skin delayed-type hypersensitivity (DTH) reactions and compared to a vehicle control and to the reference drug dexamethasone. DTH reactions are antigen-specific cell-mediated immune responses, driven primarily by T helper type 1 (Th1) cells, similar to the tuberculin immunization response. The immune reaction induced by an ovalbumin challenge to animals previously sensitized with ovalbumin in Complete Freund's Adjuvant, is characterized by swelling (edema) at the site of challenge, e.g. the mouse ear. Dexamethasone, an anti-inflammatory steroid, reduces cell-mediated immune responses and was employed to validate the responsiveness of the assay to pharmacological treatment.
Female BALB/cJW mice were bred at the University of Lodz, Lodz, Poland and housed in groups of 8 in makrolon cages with a 12 h light-dark cycle. Mice were given free access to food (Agropol S. j., Motycz, Poland) and water.
Group size was n=8 mice unless otherwise stated. Test compound was freshly prepared before administration.
Sensitization: The protein antigen, ovalbumin, was reconstituted in PBS at 4 mg/ml. […] The emulsion was tested by putting a drop of emulsion onto PBS; if the emulsion remained as a light droplet on the PBS, the emulsion was deemed ready. […]
Challenge: On the sixth day after sensitization, DTH was elicited by challenging animals subcutaneously (gauge 30 needle, B. Braun Melsungen, Melsungen, Germany) in the left ears with 10 μL of a 1% suspension of heat-aggregated ovalbumin (HOVA) (100 μg ovalbumin per mouse). […] Ear thickness was measured with a precise spring-loaded caliper (Art. No, 7309, Mltutoyo, Kawasaki, Japan) before challenge, and 24 h after challenge. […]
To account for individual variability, the increase in right ear thickness, before and 24 h after administration of PBS, was subtracted from the HOVA-induced increase in left ear thickness. The increase in ear thickness was calculated by the difference between ear thickness before and 24 h after antigen challenge. […]

[3] = Body weight and toxic side-effects in the DTH study; format: in vivo, mice; settings: oral 1 mg/kg once daily
Method: Three hours after the last dose, the antigen challenge was performed on the ears as described above. Dexamethasone was given at 1 mg/kg orally by gavage 3 h before sensitization and once daily with the final dose given 3 h prior to antigen challenge (a total of 7 administrations). All administrations were given in a volume of 10 mL/kg.
Such high dosing (overdose) is, however, not suitable for treatment of humans due to severe side effects of the corticosteroid and was only used to validate the responsiveness of the model.

CCCCCCCCCCCCCC[N+](C)(C)CCCP(=O)([O-])O [Compound 1c, 3-N,N-Dimethylmyristylammoniopropylphosphonic Acid]
Level of phospho-Akt Ser473 (phospho-Akt Ser473; 1 μM): 83.2 ± 17.3 % positive control
Level of phospho-Akt Ser473 (phospho-Akt Ser473; 5 μM): 11.7 ± 7.7 % positive control
Level of phospho-Akt Ser473 (phospho-Akt Ser473; 25 μM): 2.2 ± 1.4 % positive control
MTC (maximum tolerated concentration) (RBL-2H3 cells [1]; highest concentration not causing cytotoxicity, LDH release): 200 µM
SI (safety index, ratio MTC/IC50) (RBL-2H3 cells [1]; ratio between maximum tolerated concentration and IC50): 71.4
IC50 (RBL-2H3 cells [2]): 2800 nM

C[C@@H]1C[C@H]2[C@@H]3CCC4=CC(=O)C=C[C@]4(C)[C@@]3(F)[C@@H](O)C[C@]2(C)[C@@]1(O)C(=O)CO [Dexamethasone, reference compound]
Inhibition of mouse ear swelling (DTH response) (BALB/cJW mice): 49%
Loss in body weight [3]: 4.4%
